Experimental data reported in PubChem BioAssay (NCI).
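Test compounds were applied to cells in 96-well plates for 48 hours at 5 doses. GI50 = concentration required for 50% inhibition of growth. At the TGI there is no net growth.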

Legend:
Experiment in all cases: NCI tumour cell line growth inhibition, 48 h
[1] = tested on: M14 melanoma
[2] = tested on: TK-10 renal
[3] = tested on: LXFL 529 NSCLC
[4] = tested on: BT-549 breast
[5] = tested on: MCF7 breast
[6] = tested on: SN12K1 renal
[7] = tested on: HOP-18 NSCLC
[8] = tested on: P388/ADR leukemia
[9] = tested on: MDA-MB-435
[10] = tested on: DU-145 prostate
[11] = tested on: PC-3 prostate
[12] = tested on: T-47D breast

SMILES	TGI [1] [µM]	TGI [2] [µM]	TGI [3] [µM]	TGI [5] [µM]	TGI [6] [µM]	TGI [7] [µM]	TGI [8] [µM]	other results
O=C1CSC(C(N=Nc2ccc(Cl)cc2)c2nc3ccccc3[nH]2)=N1 (stereo unspecified)	> 100	> 100	> 100	–	–	–	–	–
CCc1c(C)c2ccc(OCC(=O)N=Nc3c(O)[nH]c4ccccc34)c(C)c2oc1=O	–	> 33.3	–	> 33.3	–	–	–	GI50 [2]: > 33.3 µM; GI50 [4]: 0.817 µM; TGI [4]: 2.1 µM; GI50 [5]: 0.992 µM
Cc1c(N=NN(C)C)cc[n+]([O-])c1C	–	–	–	> 100	> 100	> 100	> 100	–
CC(C)[C@](O)(C(=O)OCC1=CCN2CC[C@@H](O)[C@@H]12)[C@H](C)O	–	–	–	> 375	> 375	> 375	> 375	–
COC(=O)C1C(O)C(C)C(O)OC1C(C)C(O)C(C)/C=C\C=C(/C)C(=O)Nc1c(C)c(OC(C)=O)c2c(c1O)C(=O)C(C)=C1OCOC(/C(C)=C/C(C)=O)=C12 (stereo unspecified)	–	–	–	26.8	25.6	28.7	39.4	–
Cn1c(=O)c2nc(NCCO)cnc2n(C)c1=O	> 100	> 100	> 100	–	–	–	–	–
O=C(c1ccccc1)c1nn(-c2ccccc2)c2nc3nc(-c4ccccc4)cc(=O)n3nc12	81.4	> 100	–	–	–	–	–	GI50 [1]: 27.3 µM; GI50 [9]: 18.1 µM; TGI [9]: 48.3 µM; GI50 [10]: 23.8 µM; TGI [10]: 58.2 µM; GI50 [2]: 40.3 µM; GI50 [11]: 32.4 µM; TGI [11]: > 100 µM; GI50 [12]: 28.9 µM; TGI [12]: 99.5 µM; GI50 [4]: 21.2 µM; TGI [4]: 52.2 µM
Cc1cc2c(C(C)C)c(O)c(O)c(C=Nc3ccccc3)c2c(O)c1-c1c(C)cc2c(C(C)C)c(O)c(O)c(C=Nc3ccccc3)c2c1O	> 100	> 100	> 100	–	–	–	–	–
